Values of other authors as cited in patent US20140335365A1, “GYPSUM BOARD HAVING MOLD RESISTANCE” (priority 2007, published 2014).
Read-outs that look alike come from different tables or passages of the source.

Compound | water solubility | water solubility (Table 1, anti-mold agents used) [ppm]
[O-][n+]1ccccc1[S][Na] [SPT, (2-pyridinethiol-1-oxide) sodium] | 530000 ppm | 530000
O=C1c2ccccc2C(=O)N1SC(F)(Cl)Cl [fluor-folpet, N-(fluorodichloromethylthio)-phthalimide] | insoluble | 
[O-]n1ccccc1=S.[O-]n1ccccc1=S.[Zn+2] [ZPT, Bis[1-hydroxy-2(1H)pyridinethionato]zinc] | 15 ppm | 
Oc1cc(Cl)ccc1Oc1ccc(Cl)cc1Cl [triclosan, 2,4,4′-trichloro-2′-hydroxydiphenylether] | 10 ppm | 
CCCCNC(=O)OCC#CI [IPBC, 3-iodo-2-propyl butyl carbamate] | 156 ppm | 156
c1ccc2[nH]c(-c3cscn3)nc2c1 [TBZ, 2-(4-thiazolyl)-benzimidazole] | 30 ppm | 30
Cc1ccc(S(=O)(=O)C(I)I)cc1 [diiodomethyl-p-tolylsulfone, 1-[(diiodomethyl)sulfonyl]-4-methylbenzene] | 100 ppm | 
N#CSCSc1nc2ccccc2s1 [TCMTB, 2-(4-thiocyanomethylthio)benzothiazole] | 330 ppm | 
